Assay results from patent US10167300B2, “Metalloenzyme inhibitor compounds as fungicides” (priority 2014, dated 2019).
Read-outs that look alike come from different tables or passages of the source.

Tests used:
[1] = test system: Mycosphaerella graminicola; Anamorph: Septoria tritici; Bayer Code SEPTTR (standard laboratory isolate, SI SEPTTR); test: Type A (high volume) assay, leaf blotch of wheat, standard laboratory SEPTTR isolate (SI SEPTTR); assay type: in vivo, Mycosphaerella graminicola on wheat plants (variety Yuma); settings: standard laboratory isolate, high volume, 50 ppm, wheat (Yuma); for pest or weed control at 50 ppm: Zymoseptoria tritici
Procedure: (§1) Example A: Evaluation of Fungicidal Activity: Leaf Blotch of Wheat (Mycosphaerella graminicola; Anamorph: Septoria tritici; Bayer Code SEPTTR)
(§2) For Type A assays, technical grades of the experimental fungicides in Table 4 below were dissolved in acetone, and then mixed with nine volumes of water containing 110 ppm Triton X-100. The fungicide solutions were applied onto wheat seedlings using an automated booth sprayer. For Type B assays, emulsifiable concentrate (EC) formulations of technical grades of the experimental fungicides in Table 4 below were prepared at 10% (w/v), and then mixed with 150 volumes of 0.1% Trycol 5941. These solutions were applied onto wheat seedlings using an automated track sprayer at 200 L/ha. All sprayed plants were allowed to air dry prior to further handling.
(§3) Wheat plants (variety Yuma) were grown from seed in a greenhouse in 50% mineral soil/50% soil-less Metro mix until the first leaf was fully emerged, with 7-10 seedlings per pot. Prior to or after application of experimental fungicides, plants were inoculated either with spores of a standard laboratory SEPTTR isolate (SI SEPTTR) or with spores from a SEPTTR field isolate collected from Wellsbourne, England in 2012 (FI SEPTTR). After inoculation the plants were kept for 3 days at 20° C. in 100% relative humidity (one day in a dark dew chamber followed by two days in a lighted dew chamber). Plants were then transferred to a 20° C. greenhouse for disease development. When disease symptoms were fully expressed on untreated plants, infection levels on treated plants were assessed on a scale of 0 to 100 percent disease severity. Percent disease control was calculated using the ratio of disease severity on treated plants relative to untreated plants.

[2] = Type B (low volume, EC formulation, track sprayer 200 L/ha) assay, leaf blotch of wheat, SEPTTR field isolate (FI SEPTTR); assay type: in vivo, Mycosphaerella graminicola on wheat plants (variety Yuma); settings: Zymoseptoria tritici, 72 h, field isolate, low volume EC, 100 g/ha, wheat (Yuma)
Procedure: as §1, §2, §3

[3] = 24 h, 1 Day Protectant, read-out: Disease Control, SI SEPTTR Type A Assay (50 ppm) 1 DP
[4] = 72 h, 3 Day Curative, read-out: Disease Control, SI SEPTTR Type A Assay (50 ppm) 3 DC
[5] = 3 Day Curative, read-out: Disease Control, FI SEPTTR Type B Assay (100 g/ha) 3 DC
[6] = 3 Day Protectant, read-out: Disease Control, FI SEPTTR Type B Assay (100 g/ha) 3 DP

SMILES	pest or weed control at 50 ppm [1, 3] [%]	pest or weed control at 50 ppm [1, 4] [%]	further results
C=CCCC(O)(c1cncnc1)c1ccc(Oc2ccc(OC(F)(F)F)cc2)cn1 (stereo not shown) [Compound 22]	80 to 100	80 to 100	
CC(C)C(O)(c1ccc(-c2ccc(OC(F)(F)F)cc2)cn1)c1cncs1 (stereo not shown) [Compound 87]	80 to 100		
N#Cc1ccc(Oc2ccc(C(O)(Cn3cnnn3)C3CC3)nc2)cc1 (stereo not shown) [Compound 19, 4-((6-(1-cyclopropyl-1-hydroxy-2-(1H-tetrazol-1-yl)ethyl)pyridin-3-yl)oxy)benzonitrile]	< 40	40 to 59	
CC(C)C(O)(c1ccc(-c2ccc(OC(F)F)cc2)cn1)c1cncs1 (stereo not shown) [Compound 85]	80 to 100		
N#Cc1ccc(Oc2ccc(C(O)(c3cncnc3)C3CC3)nc2)cc1 (stereo not shown) [Compound 18]	< 40	< 40	
OC(Cc1cccc(F)c1)(c1cncnc1)c1ccc(-c2ccc(OC(F)(F)F)cc2)cn1 (stereo not shown) [Compound 139, 2-(3-fluorophenyl)-1-pyrimidin-5-yl-1-[5-[4-(trifluoromethoxy)-phenyl]-2-pyridyl]ethanol]	80 to 100		
CCC(O)(c1cncnc1)c1ccc(Oc2ccc(Cl)cn2)cn1 (stereo not shown) [Compound 54]	< 40	40 to 59	
COc1ncncc1C(O)(c1ccc(-c2ccc(C(F)(F)F)nc2)cn1)C(C)(C)C (stereo not shown) [Compound 172]	80 to 100		
CC(C)(C)C(O)(c1cncnc1)c1ccc(-c2cnc(C(F)(F)F)cc2C(F)(F)F)cn1 (stereo not shown) [Compound 128]	80 to 100		
CC(C)(C)C(O)(c1cncnc1)c1ccc(Oc2ccc(Cl)cc2)cn1 (stereo not shown) [Compound 44]	< 40	< 40	
N#Cc1ccc(Oc2ccc(C(O)(CC3CC3)Cn3cnnn3)nc2)cc1 (stereo not shown) [Compound 23]	< 40	60 to 79	
COc1ccc(-c2ccc(C(O)(c3cncnc3OC)C(C)(C)C)nc2)cn1 (stereo not shown) [Compound 171]	80 to 100		
CC(C)C(O)(Cn1cnnn1)c1ccc(Oc2ccc(C#N)cc2)cn1 (stereo not shown) [Compound 24]	< 40	< 40	
OC(CCc1ccc(Cl)cc1F)(Cn1cnnn1)c1ccc(Oc2ccc(Cl)cn2)cn1 (stereo not shown) [Compound 4]	60 to 79	< 40	
CC(C)C(O)(c1cncnc1)c1ccc(Oc2ccc(Cl)nc2)cn1 (stereo not shown) [Compound 10]	80 to 100	80 to 100	
OC(c1cncnc1)(c1ccc(Oc2ccc(OC(F)(F)F)cc2)cn1)C1CC1 (stereo not shown) [Compound 8]	80 to 100	80 to 100	
OC(CCc1ccc(F)cc1F)(Cn1cnnn1)c1ccc(Oc2ccc(C(F)(F)F)cn2)cn1 (stereo not shown) [Compound 5]	< 40	40 to 59	
CC(C)C(O)(c1cncnc1)c1ccc(Oc2ccc(C#N)cc2)cn1 (stereo not shown) [Compound 16]	80 to 100	80 to 100	
OC(c1ccc(-c2ccc(OC(F)(F)F)cc2)cn1)(c1cncs1)c1ccc(F)cc1F (stereo not shown) [Compound 94]	60 to 79		
OC(c1cncnc1)(c1ccc(Oc2ccc(Cl)nc2)cn1)C1CC1 (stereo not shown) [Compound 11]	40 to 59	40 to 59	
Cc1ccc(Oc2ccc(C(O)(c3cncnc3)C(C)C)nc2)nc1 (stereo not shown) [Compound 53]	40 to 59	< 40	
CC(C)(C)C(O)(c1cccnc1)c1ccc(-c2ccc(OC(F)(F)F)cc2F)cn1 (stereo not shown) [Compound 147]	80 to 100		
CC(C)(C)C(O)(c1cncnc1)c1ccc(-c2cccnc2)cn1 (stereo not shown) [Compound 126]	60 to 79		
CCC(O)(c1cncnc1)c1ccc(Oc2cccc(Cl)n2)cn1 (stereo not shown) [Compound 70]	40 to 59		
OC(Cc1ccc(Cl)cc1)(c1cncnc1)c1ccc(-c2ccc(OC(F)(F)F)cc2)cn1 (stereo not shown) [Compound 140]	80 to 100		
OC(C#CC1CC1)(c1cncnc1)c1ccc(Oc2ccc(OC(F)(F)F)cc2)cn1 (stereo not shown) [Compound 48]	< 40	< 40	

SMILES	pest or weed control at 50 ppm [1, 3] [%]	pest or weed control at 50 ppm [1, 4] [%]	further results
CC(C)C(O)(c1cccnc1)c1ccc(Oc2ccc(Cl)cn2)cn1 (stereo not shown) [Compound 77]	80 to 100		
OC(c1cncnc1)(c1ccc(Oc2ccc(C(F)(F)F)cn2)cn1)C1CC1 (stereo not shown) [Compound 67]	< 40		
Cc1ccc(Oc2ccc(C(O)(C#CC(C)(C)C)c3cncnc3)nc2)nc1 (stereo not shown) [Compound 50]	< 40	60 to 79	
CC(C)C(O)(Cn1cnnn1)c1ccc(-c2ccc(OCC(F)(F)F)nc2)cn1 (stereo not shown) [Compound 62]	40 to 59	40 to 59	
N#Cc1ccc(Oc2ccc(C(O)(Cn3cnnn3)C(F)(F)c3ccc(F)cc3F)nc2)cc1 (stereo not shown) [Compound 1, 4-((6-(1-(2,4-difluorophenyl)-1,1-difluoro-2-hydroxy-3-(1H-tetrazol-1-yl)propan-2-yl)pyridin-3-yl)oxy)benzonitrile]	< 40	40 to 59	
CC(C)(C)C#CC(O)(c1cncnc1)c1ccc(Oc2ccc(Cl)cc2)cn1 (stereo not shown) [Compound 29, 1-(5-(4-chlorophenoxy)pyridin-2-yl)-4,4-dimethyl-1-(pyrimidin-5-yl)pent-2-yn-1-ol]	80 to 100	80 to 100	
CC(C)(C)C(O)(c1cncnc1)c1ccc(-c2cncnc2)cn1 (stereo not shown) [Compound 113]	60 to 79		
CC(C)(C)C(O)(c1cncnc1)c1ccc(-c2ccc(CC#N)cc2)cn1 (stereo not shown) [Compound 153]	80 to 100		
OC(CCc1ccc(F)cc1F)(Cn1cnnn1)c1ccc(Oc2ccc(Cl)cn2)cn1 (stereo not shown) [Compound 2, 2-(5-((5-chloropyridin-2-yl)oxy)pyridin-2-yl)-4-(2,4-difluorophenyl)-1-(1H-tetrazol-1-yl)butan-2-ol]	80 to 100	< 40	
CC(C)(C)C#CC(O)(c1cncnc1)c1ccc(Oc2ccc(Cl)cn2)cn1 (stereo not shown) [Compound 49]	60 to 79	80 to 100	
CC(C)C(O)(Cn1cnnn1)c1ccc(-c2ccc(OC(F)(F)F)cc2)cn1 (stereo not shown) [Compound 61]	40 to 59	60 to 79	
OC(Cc1ccc(F)cc1F)(c1cncnc1)c1ccc(-c2ccc(OC(F)(F)F)cc2)cn1 (stereo not shown) [Compound 138]	80 to 100		
OC(c1cncnc1)(c1ccc(Oc2ccc(Cl)cc2)cn1)C1CC1 (stereo not shown) [Compound 7]	80 to 100	80 to 100	
COc1ncncc1C(O)(c1ccc(-c2ccc(C(C)(C)C#N)cc2C)cn1)C(C)(C)C (stereo not shown) [Compound 129, 2-(4-(6-(1-hydroxy-1-(4-methoxypyrimidin-5-yl)-2,2-dimethylpropyl)pyridin-3-yl)-3-methylphenyl)-2-methylpropanenitrile]	60 to 79		
OC(c1cccnc1)(c1ccc(Oc2ccc(Cl)cn2)cn1)C1CC1 (stereo not shown) [Compound 79]	80 to 100		
OC(Cc1cccc(Cl)c1)(c1cncnc1)c1ccc(-c2ccc(OC(F)(F)F)cc2)cn1 (stereo not shown) [Compound 141]	60 to 79		
CCC(O)(c1cncnc1)c1ccc(Oc2ccc(Cl)nc2)cn1 (stereo not shown) [Compound 36]	< 40	60 to 79	
CC(C)(C)C(O)(c1cncnc1)c1ccc(-c2cnc3ccccc3c2)cn1 (stereo not shown) [Compound 127]	80 to 100		
CC(C)(C)C(O)(c1cncnc1)c1ccc(-c2ccsc2)cn1 (stereo not shown) [Compound 110]	80 to 100		
CC(C)C(O)(c1cncnc1)c1ccc(Oc2ccc(Cl)cc2)cn1 (stereo not shown) [Compound 6]	80 to 100	80 to 100	
CC(C)C(O)(c1cncnc1)c1ccc(Oc2ccc(C(F)(F)F)cc2)cn1 (stereo not shown) [Compound 75]			Disease Control, SI SEPTTR Type A Assay (50 ppm) 1 DP ([1]; 1 Day Protectant): A (80-100)
CC(C)C(O)(c1cncnc1)c1ccc(Oc2cccc(Cl)n2)cn1 (stereo not shown) [Compound 69]	80 to 100		
COc1ncncc1C(O)(c1ccc(-c2ccc(OCC(F)(F)F)cc2)cn1)C(C)(C)C (stereo not shown) [Compound 203]			pest or weed control at 100 g/ha [2, 5]: 40 to 59%; pest or weed control at 100 g/ha [2, 6]: 80 to 100%
CC(C)(C)C(O)(c1cncc(F)c1)c1ccc(-c2ccc(OC(F)(F)F)cc2)cn1 (stereo not shown) [Compound 202]			pest or weed control at 100 g/ha [2, 5]: 60 to 79%; pest or weed control at 100 g/ha [2, 6]: 60 to 79%
COc1ncncc1C(O)(c1ccc(-c2ccc(Cl)cc2)cn1)C(C)(C)C (stereo not shown) [Compound 247]			pest or weed control at 100 g/ha [2, 5]: < 40%; pest or weed control at 100 g/ha [2, 6]: 80 to 100%
